Test results: PubChem BioAssay AID2305 (GlaxoSmithKline (GSK), 2010)
Where “and” joins values, the source holds several entries; their conditions need not be identical. Equal values may be shown once.

Each molecule was assayed on P. falciparum 3D7 growth, pLDH absorbance (assay: P. falciparum 3D7 growth inhibition, dose response, strain 3D7 (AID 2305)).

Compound | IC50
O=C(Nc1cc(F)c(F)c(-c2cccnc2)c1)N1CCc2cc(Cl)c(Cl)cc21 | 840 nM
CCc1cc2c3c(N)nc(N)nc3ccc2n1CC | 10 nM
CC(CN1CCN(C)CC1)C(=O)Nc1cccc(-c2ccc(-c3nc4ccc(C(F)(F)F)cc4[nH]3)cc2)c1 (stereo not given) | 610 nM
CC(=O)Nc1nnc(SCc2c(C)cc(C(C)(C)C)cc2C)s1 | 700 nM
O=C(O)C1Cc2c([nH]c3ccccc23)C(c2ccc(Cl)cc2Cl)N1 (stereo not given) | 950 nM
O=c1cc(N2CCCNCC2)c(Cl)nn1Cc1ccc(NS(=O)(=O)c2ccc(Oc3ccccc3)cc2)cc1 | 800 nM
COc1ccc2nccc(N3CCC(CCNCc4ccc5c(n4)NC(=O)CO5)CC3)c2n1 | 1000 nM
Cc1sc(N2CCCCC2)nc1C(=O)Nc1ccc(F)cc1C(F)(F)F | 1150 nM
Cc1c(C)c2c(c(C)c1O)CC[C@](C)(C(=O)NC1CCC(CN3CCC(c4c[nH]c5ccccc45)CC3)CC1)O2 (stereo not given in full) | 880 nM and 1120 nM
Cc1[nH]c2ccccc2c1C1=CCN(CCCCC23CCCc4cccc(c42)NC3=O)CC1 (stereo not given) | 230 nM
Cc1cnc(Nc2ccccc2)nc1N[C@@H](CCCN)C(=O)Nc1ccccc1 | 810 nM
COc1ccc(OC)c2c1C[C@@H]1NC[C@H]2c2c(OC)ccc(OC)c21 | 970 nM
COc1ccccc1CNC(=O)CCn1c(=O)[nH]c2ccsc2c1=O | 1040 nM
COc1ccc2nccc([C@@H](O)CN3CCC(NC(=O)/C=C/c4c[nH]c5c(C)cccc45)CC3)c2c1 | 130 nM
O=c1n(CC2CCCCC2)c2cc(Cl)cc(OCCNc3ccncc3)c2n1CC1CCCCC1 | 590 nM
COc1ccc(C2C(C(=O)Nc3ccc(C)c(F)c3)c3cc(OC)c(OC)cc3C(=O)N2C)cc1 (stereo not given) | 960 nM
C#CCN1CCC2=C(C1)c1c(O)cc(C(C)CCCc3ccc(F)cc3)cc1OC2(C)C (stereo not given) | 730 nM
O=C(Cc1cnc[nH]1)Nc1cccc(-c2cccc(-c3nc4ccc(F)cc4[nH]3)c2)c1 | 780 nM
CCN(c1ccc(F)cc1)S(=O)(=O)c1cc(Br)cc2c1N(C(=O)C1CC1)CC2 | 940 nM
Cc1cc(F)ccc1N(c1nc(-c2cc(Cl)ccc2Cl)cs1)C1CCNC1 (stereo not given) | 1010 nM
Nc1ncc(-c2ccc(Br)cc2)c(N)n1 | 920 nM
N#Cc1c(-c2ccccc2)cn2c1[nH]c(=O)c1ccccc12 | 110 nM
O=C(c1ccc(-c2ccc(-c3nc4ccc(C(F)(F)F)cc4[nH]3)s2)cc1)N1CCCCC1CN1CCC(O)C1 (stereo not given) | 560 nM
COc1ccc(CC(=O)NC(CCN2CCC3(CCc4ccccc43)CC2)c2ccc(Cl)c(Cl)c2)cc1 (stereo not given) | 530 nM
NCCCOc1cnc(-c2ccccc2)c2nc(-c3nonc3N)n(CCc3ccccc3)c12 | 1270 nM

Compound | IC50
CCC(=O)Nc1ccc(C(O)CN2CCC3(C=Cc4ccccc4O3)CC2)cc1 (stereo not given) | 1200 nM
CC(C)N1CCN(C(CN2CCN(CCCOc3ccc(-c4ccccc4)cc3)CC2)c2ccc(F)cc2)CC1 (stereo not given) | 680 nM
CCOc1ccc(S(=O)(=O)N(C)c2ccc(OCC(=O)Nc3nccs3)cc2)cc1 | 960 nM
CCOC(=O)c1[nH]c(-c2cccc(F)c2)nc1N | 750 nM
COc1cc2ncnc(NCCc3ccccc3Cl)c2cc1OC | 1120 nM
O=C(CCc1cnc[nH]1)Nc1ccc(-c2cccc(-c3nc4ccccc4[nH]3)c2)cc1 | 350 nM
CC1=C(C(=O)Nc2cc3cn[nH]c3cc2F)C(c2cccc(O)c2F)CC(=O)N1 (stereo not given) | 630 nM
NC(=O)c1ccc(C(=O)Nc2cccc(-c3ccc(-c4nc5ccc(C(F)(F)F)cc5[nH]4)cc3)c2)cc1 | 510 nM
O=C(N[C@H]1CCN(Cc2ccc(OCCN3CCNCC3)c(Cl)c2)C1)c1ccc(Cl)c(Cl)c1 | 1060 nM
CCCCN(CCCC)Cc1cc(Nc2ccnc3cc(Cl)ccc23)ccc1O | 20 nM
O=[N+]([O-])c1ccc(N2CCCN(C(=S)Nc3ccc(F)cc3Br)CC2)nc1 | 300 nM
COc1cc(C(=O)N2CCN(C(C)C)CC2)ccc1CN(C)CCCCN1CCN(c2cccc(Cl)c2Cl)CC1 | 700 nM
N#Cc1cccc(Nc2ncc3c(-c4cccc(NC(=O)Cc5cccc(Cl)c5)c4)c[nH]c3n2)c1 | 420 nM
CC(C)N1CCC(NC(=O)N2CCCN(c3ncnc4cc(-c5ccccc5)sc34)CC2)CC1 | 860 nM
COc1ccc2nccc(NCC3(O)CCC(NCc4cc5c(cn4)OCCO5)CC3)c2n1 (stereo not given) | 660 nM
CCOC(=O)c1ccc(NC(=O)Nc2ccc(-c3ccc(-c4nc5c(C)cccc5[nH]4)s3)cc2)cc1 | 200 nM
CCCCCCN1CCN(Cc2cccc(NC(=O)c3cc4ccccc4o3)c2)CC1 | 910 nM
Fc1ccc(Nc2n[nH]c(CNC3CCN(Cc4ccc(Cl)c(Cl)c4)CC3)n2)cc1 | 1380 nM
Cc1cccc2[nH]c(-c3ccc(-c4cccc(CNCCCN5CCCC5=O)c4)cc3)nc12 | 840 nM
O=C(COc1ccccc1)N(Cc1ccc(-c2ccc(CNC3Cc4ccccc4C3)cc2)cc1)C1CCNCC1 | 1020 nM
FC(F)(F)c1ccc2nc(-c3ccc(-c4cccc(CNCc5cnn(-c6ccccc6)n5)c4)s3)[nH]c2c1 | 330 nM
O=C(Nc1ccc2nc3n(c(=O)c2c1)CCCCC3)C(=O)N1CCN(c2ccc(F)cc2)CC1 | 640 nM
CCN(CCCN1CCCCC1)c1nccc(Nc2ccc(Cl)cc2)n1 | 1190 nM
Cc1ccc2cc(NC(=O)c3cccc(C(=O)Nc4ccc5nc(C)ccc5c4)n3)ccc2n1 | 1170 nM
O=C(NCC(NCCCNc1cc(=O)c2ccccc2[nH]1)c1cc(Br)cc(Br)c1)C1=CCCC1 (stereo not given) | 900 nM
